According to paper PMC12775823, “Glucosylceramide regulates depression through activating peroxisome proliferator-activated receptor gamma in dorsal striatum” (Theranostics, 2026):

Key:
[1] = tested on: D2-Pparg^f/f mice; assay: Behavioral tests in D2-Pparg f/f mice after intra-dorsal striatal microinfusion; type: in vivo; conditions: microinfusion of GlcCer
Protocol: For intracranial injection, mice were surgically implanted with sterilized guide cannulae in dorsal striatum. Intra-dorsal striatal injection of PDMP (100 μM, 1 μL/injection), pioglitazone (100 μM, 1 μL/injection), UNC (10 μM, 1 μL/injection) was performed 30 min before behavioral test. Mice were intraperitoneally injected with CNO (1 mg/kg/d) before behavioral test.
(§1) Elevated plus maze test (EPMT).
(§2) Light-dark Transition test (LDT).
(§3) Sucrose preference test (SPT).
(§4) Forced swimming test (FST).

[2] = tested on: CRS-induced mice; assay: Behavioral tests (OFT, EPMT, LDT, SPT, FST) in chronic restraint stress mice, intra-dorsal striatal infusion; type: in vivo
Protocol: For intracranial injection, mice were surgically implanted with sterilized guide cannulae in dorsal striatum. […] Mice were intraperitoneally injected with CNO (1 mg/kg/d) before behavioral test.
Chronic restraint stress (CRS). For the CRS protocol, male C57BL/6J mice (8-10 weeks old) were obtained from Charles River Laboratories (Beijing, China). Mice were individually placed into well-ventilated 50 mL conical restraint tube (suitable for mice weighing 20-25 g) with multiple holes for 4 h daily between 10:00 AM and 2:00 PM to minimize circadian rhythm variations. The restraint stress procedure was conducted for 14 consecutive days. Then, all behavioral test were performed between 10:00 AM and 18:00 PM.
as §1, §2, §3, §4

[3] = tested on: PPARγ target genes; assay: qRT-PCR of PPARγ target genes in PPARγ-overexpressing N2a cells; type: cell-based; conditions: 0.1, 1 and 10 μM
[4] = tested on: T1, PPARγ-LBD; assay: Bio-layer interferometry, PPARγ LBD; type: binding, human; conditions: biolayer interferometry, Figure S7D, E
T1 construct: human PPARγ-LBD (residues 223-505); 6xHis; made in house; host or cells: E. coli BL21 (DE3)
Protocol: The bio-layer interferometry assay was performed at 30 °C on the Octet RED96 System (ForteBio, USA) with PBS as the running buffer. Purified PPARγ-LBD were biotinylated using the EZ-Link Sulfo-NHS-LC-Biotinylation Kit (Thermo Fisher Scientific, USA) according to the manufacturer's instructions. The biotinylated PPARγ was then immobilized onto SSA Biosensors (ForteBio, USA), pre-equilibrated in the running buffer. The biosensors were incubated with various concentrations of the GlcCer or pioglitazone, followed by dissociation. The data were analyzed and the binding parameters were determined using the software supplied by the manufacturer.

[5] = tested on: human PPARγ-LBD; assay: Surface plasmon resonance, PPARγ LBD; conditions: Figure S7B, C
Protocol: Prepared human PPARγ-LBD and human PPARγ-full length (Active Motif, USA) were immobilized onto a CM5 sensor chip using amine coupling. Briefly, the protein was diluted to 50 μg/mL in immobilization buffer and covalently attached to the CM5 chip via an Amine Coupling Kit (Cytiva, USA), following the manufacturer's instructions. A channel without immobilized protein was used as a blank control. […] Gradient concentrations of GlcCer were injected over both channels at a flow rate of 30 μL/min, with an association time and dissociation time of 85 s each.

[6] = target: T2, human PPARγ-full length (Homo sapiens, UniProt P37231); assay: Surface plasmon resonance, full-length hPPARγ; type: binding; conditions: SPR, steady-state affinity, 25 °C; read-out: equilibrium dissociation constant (KD) for hPPARγ
T2 construct: human PPARγ-full length (Active Motif, USA); purchased Active Motif
T2 sequence (P37231 1-505): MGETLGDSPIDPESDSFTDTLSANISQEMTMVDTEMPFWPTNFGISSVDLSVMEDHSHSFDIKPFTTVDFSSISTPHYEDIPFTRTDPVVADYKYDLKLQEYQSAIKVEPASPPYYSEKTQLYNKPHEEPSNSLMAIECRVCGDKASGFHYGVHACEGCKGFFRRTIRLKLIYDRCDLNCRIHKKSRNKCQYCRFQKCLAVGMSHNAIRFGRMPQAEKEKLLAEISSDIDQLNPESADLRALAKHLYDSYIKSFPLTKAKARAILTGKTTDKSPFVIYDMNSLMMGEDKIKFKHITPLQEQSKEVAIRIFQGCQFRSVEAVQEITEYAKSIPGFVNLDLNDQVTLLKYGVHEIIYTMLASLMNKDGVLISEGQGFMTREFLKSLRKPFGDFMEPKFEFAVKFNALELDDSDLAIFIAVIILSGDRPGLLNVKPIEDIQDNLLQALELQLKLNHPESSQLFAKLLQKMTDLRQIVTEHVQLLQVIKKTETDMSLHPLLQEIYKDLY
Protocol: Prepared human PPARγ-LBD and human PPARγ-full length (Active Motif, USA) were immobilized onto a CM5 sensor chip using amine coupling. Briefly, the protein was diluted to 50 μg/mL in immobilization buffer and covalently attached to the CM5 chip via an Amine Coupling Kit (Cytiva, USA), following the manufacturer's instructions. A channel without immobilized protein was used as a blank control. The positive control, pioglitazone, and the test molecule, GlcCer, were both diluted in running buffer (PBS containing 5% (v/v) DMSO, 3 mM EDTA, and 0.05% (v/v) surfactant P20, pH 7.4). Gradient concentrations of GlcCer were injected over both channels at a flow rate of 30 μL/min, with an association time and dissociation time of 85 s each.

[7] = CRS mice, pioglitazone 1 μM, GlcCer 200 μM, 1 μL/side, or combination

With Glucosylceramide [GlcCer] the depression-like behaviors [1] was “failed to alleviate”, the “time spent in the center area (OFT)” value ([2]; CRS mice vs vehicle, pioglitazone 1 μM, GlcCer 200 μM, 1 μL/side, or combination) was “significant increase” and the “stress-induced depression-like behaviors (overall)” value ([2]; CRS mice, administration of GlcCer, pioglitazone or combined) was “reverses”. For the same substance, the “immobility duration in the FST” value [2, 7] was “decreased”, the “sucrose preference in the SPT” value [2, 7] was “increased” and the “expression of Adipoq and Leptin” value [3] was “robustly upregulated”. The “expression of adipogenesis-related genes (Srebp-1c, Adrp, Fabp4, Fasn, Cd36)” value [3] was “little or no effect”, the “binding affinity for the LBD (BLI)” value [4] was “minimal binding affinity” and the “binding affinity for the LBD (SPR)” value [5] was “minimal binding affinity”. The Kd [6] was 36 ± 2 nM.
